Experiment [1] concerns human multiple myeloma cell line, OPM-2. In words: Cell viability assay (OPM-2 10 FBS), CellTiter-Glo. It is filed as cell-based. A digest of the protocol:
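IC50 values come from 4-parameter logistic fits of luminescence signals reflecting cell viability. Treatment lasted 16 h at 37 °C in complete medium with 10% FBS, starting from 3000 cells/well.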

Experiment [2] concerns the target recombinant human Mcl-1 (residues 171-327) / Bim interaction (Homo sapiens (Human), UniProt Q07820). In words: biochemical. It is filed as binding. Conditions: read-out: Mcl-1 HTRF IC50.
Where [3] appears, read: read-out: OPM-2 10% FBS IC50 IP, OPM-2 cells, 10% FBS, 16 h, CellTiter-Glo.
[4] abbreviates: TR-FRET, Mcl-1(171-327) / biotin-Bim (51-76).
[5] abbreviates: read-out: OPM-2 10% FBS IC50 IP, OPM-2 cells, 10% FBS, 16 h incubation.
Setting [6] is: 0.1 nM Mcl-1(171-327), 0.05 nM biotin-Bim (51-76).
[7] abbreviates: Homo sapiens, OPM-2, 16 h, read-out: OPM-2 10% FBS IC50 IP, OPM-2 cells, 10% FBS, 16 h incubation.
Setting [8] is: Homo sapiens, OPM-2, 16 h, read-out: OPM-2 10% FBS IC50 IP, OPM-2 cells, 10% FBS, 16 h, CellTiter-Glo.

The values below come from US10821115B2, “Compounds that inhibit Mcl-1 protein” (priority 2017, dated 2020).

Read-outs that look alike come from different tables or passages of the source.

Chain of recombinant human Mcl-1 (residues 171-327) / Bim interaction (Q07820 171-327): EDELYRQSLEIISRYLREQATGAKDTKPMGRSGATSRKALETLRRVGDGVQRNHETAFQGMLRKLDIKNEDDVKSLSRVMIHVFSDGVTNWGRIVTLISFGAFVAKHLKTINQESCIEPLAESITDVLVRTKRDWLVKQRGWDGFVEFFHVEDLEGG

As to `CO[C@@]1(CO)CCC[C@H](C)[C@@H](C)S(=O)(=O)NC(=O)c2ccc3c(c2)N(C[C@@H]2CC[C@H]21)C[C@@]1(CCCc2cc(Cl)ccc21)CO3` (stereo in doubt) [Example 100184, (1S,3′R,6′R,7′S,11′S,12′R)-6-chloro-7′-(hydroxymethyl)-7′-methoxy-11′,12′-dimethyl-3,4-dihydro-2H,15′H-spiro[naphthalene-1,22′-[20]oxa[13]thia[1,14]diazatetracyclo [14.7.2.0~3,6~.0~19,24~]pentacosa[16,18,24]rien]-15′-one 13′,13′-dioxide], the half-inhibitory concentration (IC50) in experiment [1] (setting [3]) was 179 nM; in experiment [2] (setting [4]), 0.717 nM.
On the same counts, the results for `C[C@@H]1[C@@H](C)CCC[C@@]2(C[C@H]2C(=O)N2CCN3CCOC[C@H]3C2)[C@@H]2CC[C@H]2CN2C[C@@]3(CCCc4cc(Cl)ccc43)COc3ccc(cc32)C(=O)NS1(=O)=O` [Example 100304, (1R,2R,3′R,6′R,11′S,12′R,22′S)-6″-chloro-2-((9aR)-hexahydropyrazino[2,1-c][1,4]oxazin-8(1H)-ylcarbonyl)-11′,12′-dimethyl-3″,4″-dihydro-2″H,15′H-dispiro[cyclopropane-1,7′-[20]oxa[13]thia[1,14]diazatetracyclo [14.7.2.0~3,6~.0~19,24~]pentacosa[16,18,24]triene-22′,1″-naphthalen]-15′-one 13′,13′-dioxide] are 464 nM and 0.311 nM.
For the compound `CO[C@@]1(CN2CCN3CC[C@H](F)C[C@@H]3C2)/C=C/C[C@H](C)[C@@H](C)S(=O)(=O)NC(=O)c2ccc3c(c2)N(C[C@@H]2CC[C@H]21)C[C@@]1(CCCc2cc(Cl)ccc21)CO3` (single isomer, unassigned) [Example 284], the 50% inhibitory concentration (IC50) is 230 nM in experiment [1] (setting [5]) and 0.288 nM in experiment [2] (setting [6]).
Regarding `CO[C@@]1(CN2CCN3C[C@H](C)OC[C@@H]3C2)/C=C/C[C@H](C)[C@@H](C)S(=O)(=O)NC(=O)c2ccc3c(c2)N(C[C@@H]2CC[C@H]21)C[C@@]1(CCCc2cc(Cl)ccc21)CO3` [Example 145, (1S,3′R,6′R,7′S,8′E,11′S,12′R)-6-chloro-7′-methoxy-11′,12′-dimethyl-7′-(((3S,9aS)-3-methylhexahydropyrazino[2,1-c][1,4]oxazin-8(1H)-yl)methyl)-3,4-dihydro-2H,15′H-spiro[naphthalene-1,22′-[20]oxa[13]thia[1,14]diazatetracyclo [14.7.2.0~3,6~.0~19,24~]pentacosa[8,16,18,24]tetraen]-15′-one 13′,13′-dioxide], the IC50 was 113 nM in experiment [1] (setting [7]) and 0.124 nM in experiment [2] (setting [6]).
With `C[C@H](C(=O)O)[C@@]1(O)/C=C/C[C@H](C)[C@@H](C)S(=O)(=O)NC(=O)c2ccc3c(c2)N(C[C@@H]2CC[C@H]21)C[C@@]1(CCCc2cc(Cl)ccc21)CO3` (single isomer, unassigned) [Example 100121], the IC50 in experiment [1] (setting [3]) came to 2530 nM; in experiment [2] (setting [4]), 0.056 nM.
For the compound `C[C@@H]1[C@@H](C)C/C=C/[C@@](O)(c2ccncc2)[C@@H]2CC[C@H]2CN2C[C@@]3(CCCc4cc(Cl)ccc43)COc3ccc(cc32)C(=O)NS1(=O)=O` (single isomer, unassigned) [Example 100392], the IC50 in experiment [1] (setting [8]) stood at 129 nM; in experiment [2] (setting [4]) it was 0.112 nM.
Regarding `CO[C@]1(CN2CCN3CCCC[C@@H]3C2)/C=C/[C@H](C)[C@H](C)CS(=O)(=O)NC(=O)c2ccc3c(c2)N(C[C@@H]2CC[C@H]21)C[C@@]1(CCCc2cc(Cl)ccc21)CO3` [Example 161, (1S,3′R,6′R,7′R,8′E,10′S,11′S)-6-chloro-7′-methoxy-10′,11′-dimethyl-7′-((9aR)-octahydro-2H-pyrido[1,2-a]pyrazin-2-ylmethyl)-3,4-dihydro-2H,15′H-spiro[naphthalene-1,22′-[20]oxa[13]thia[1,14]diazatetracyclo [14.7.2.0~3,6~.0~19,24~]pentacosa[8,16,18,24]tetraen]-15′-one 13′,13′-dioxide], the IC50 in experiment [1] (setting [7]) amounted to 113 nM; in experiment [2] (setting [6]), 0.094 nM.
For the compound `C[C@@H]1[C@@H](C)CCC[C@@](O)(CC#N)[C@@H]2CC[C@H]2CN2C[C@@]3(CCCc4cc(Cl)ccc43)COc3ccc(cc32)C(=O)NS1(=O)=O` (single isomer, unassigned) [Example 100081], the IC50 in experiment [1] (setting [8]) turned out to be 5930 nM; in experiment [2] (setting [4]), 7.33 nM.
As to `CO[C@@]1(CN2CCN(C3(C)COC3)CC2)/C=C/C[C@H](C)[C@@H](C)S(=O)(=O)NC(=O)c2ccc3c(c2)N(C[C@@H]2CC[C@H]21)C[C@@]1(CCCc2cc(Cl)ccc21)CO3` [Example 268, (1S,3′R,6′R,7′S,8′E,11′S,12′R)-6-chloro-7′-methoxy-11′,12′-dimethyl-7′-((4-(3-methyl-3-oxetanyl)-1-piperazinyl)methyl)-3,4-dihydro-2H,15′H-spiro[naphthalene-1,22′-[20]oxa[13]thia[1,14]diazatetracyclo [14.7.2.0~3,6~.0~19,24~]pentacosa[8,16,18,24]tetraen]-15′-one 13′,13′-dioxide], the IC50 in experiment [1] (setting [7]) came to 72 nM; in experiment [2] (setting [6]), 0.065 nM.
As for `CO[C@]1(CN2CCN3CCC(F)(F)C[C@H]3C2)/C=C/C[C@H](C)[C@@H](C)S(=O)(=O)NC(=O)c2ccc3c(c2)N(C[C@@H]2CC[C@H]21)C[C@@]1(CCCc2cc(Cl)ccc21)CO3` (single isomer, unassigned) [Example 299], the values for the IC50 in experiment [1] (setting [5]) and in experiment [2] (setting [6]) were 456 nM and 0.367 nM, respectively.
Consider `CO[C@]1(CN(C)C)/C=C/C[C@H](C)[C@@H](C)S(=O)(=O)NC(=O)c2ccc3c(c2)N(C[C@@H]2CC[C@H]21)C[C@@]1(CCCc2cc(Cl)ccc21)CO3` [Example 69, (1S,3′R,6′R,7′R,8′E,11′S,12′R)-6-chloro-7′-((dimethylamino)methyl)-7′-methoxy-11′,12′-dimethyl-3,4-dihydro-2H,15′H-spiro[naphthalene-1,22′-[20]oxa[13]thia[1,14]diazatetracyclo [14.7.2.0~3,6~.0~19,24~]pentacosa[8,16,18,24]tetraen]-15′-one 13′,13′-dioxide], for which the IC50 worked out at 1480 nM in experiment [1] (setting [7]) and 3.83 nM in experiment [2] (setting [6]).
Take `CO[C@@]1(CCOS(C)(=O)=O)/C=C/C[C@H](C)[C@@H](C)S(=O)(=O)NC(=O)c2ccc3c(c2)N(C[C@@H]2CC[C@H]21)C[C@@]1(CCCc2cc(Cl)ccc21)CO3` [Example 100364, 2-((1S,3′R,6′R,7′S,8′E,11′S,12′R)-6-chloro-7′-methoxy-11′,12′-dimethyl-13′,13′-dioxido-15′-oxo-3,4-dihydro-2H-spiro[naphthalene-1,22′-[20]oxa[13]thia[1,14]diazatetracyclo [14.7.2.0~3,6~.0~19,24~]pentacosa[8,16,18,24]tetraen]-7′-yl)ethyl methanesulfonate]: the IC50 in experiment [1] (setting [8]) was determined as 1680 nM; in experiment [2] (setting [4]), 1.16 nM.
On the same counts, the results for `CO[C@]1(c2nccs2)/C=C/C[C@H](C)[C@@H](C)S(=O)(=O)NC(=O)c2ccc3c(c2)N(C[C@@H]2CC[C@H]21)C[C@@]1(CCCc2cc(Cl)ccc21)CO3` (single isomer, unassigned) [Example 100522] are 538 nM and 0.144 nM.
On the same counts, the results for `C[C@@H]1[C@@H](C)C/C=C/[C@@](O)(C=O)[C@@H]2CC[C@H]2CN2C[C@@]3(CCCc4cc(Cl)ccc43)COc3ccc(cc32)C(=O)NS1(=O)=O` [Example 100291, (1S,3′R,6′R,7′S,8′E,11′S,12′R)-6-chloro-7′-hydroxy-11′,12′-dimethyl-15′-oxo-3,4-dihydro-2H-spiro[naphthalene-1,22′-[20]oxa[13]thia[1,14]diazatetracyclo [14.7.2.0~3,6~.0~19,24~]pentacosa[8,16,18,24]tetraene]-7′-carbaldehyde 13′,13′-dioxide] are 281 nM and 0.137 nM.
On the same counts, the results for `C[C@@H]1[C@@H](C)C/C=C/[C@](O)(CC(=O)OCC2(C)COC2)[C@@H]2CC[C@H]2CN2C[C@@]3(CCCc4cc(Cl)ccc43)COc3ccc(cc32)C(=O)NS1(=O)=O` [Example 100298, (3-methyl-3-oxetanyl)methyl ((1S,3′R,6′R,7′R,8′E,11′S,12′R)-6-chloro-7′-hydroxy-11′,12′-dimethyl-13′,13′-dioxido-15′-oxo-3,4-dihydro-2H-spiro[naphthalene-1,22′-[20]oxa[13]thia[1,14]diazatetracyclo [14.7.2.0~3,6~.0~19,24~]pentacosa[8,16,18,24]tetraen]-7′-yl)acetate] are 199 nM and 0.14 nM.
Regarding `C[C@@H]1[C@@H](C)C/C=C/[C@]2(CN(CC3CCCCC3)CCO2)[C@@H]2CC[C@H]2CN2C[C@@]3(CCCc4cc(Cl)ccc43)COc3ccc(cc32)C(=O)NS1(=O)=O` [Example 139, (1S,3′R,6′R,7′R,8′E,11′S,12′R)-6-chloro-4″- (cyclohexylmethyl)-11′,12′-dimethyl-3,4-dihydro-2H,15′H-dispiro[naphthalene-1,22′-[20]oxa[13]thia[1,14]diazatetracyclo [14.7.2.0~3,6~.0~19,24~]pentacosa[8,16,18,24]tetraene-7′,2″-[1,4]oxazinan]-15′-one 13′,13′-dioxide], the IC50 in experiment [1] (setting [7]) was > 33300 nM; in experiment [2] (setting [6]), 32 nM.
For the compound `COC(OC)c1cncc([C@@]2(OC)/C=C/C[C@H](C)[C@@H](C)S(=O)(=O)NC(=O)c3ccc4c(c3)N(C[C@@H]3CC[C@H]32)C[C@@]2(CCCc3cc(Cl)ccc32)CO4)c1` (single isomer, unassigned) [Example 100511], the half-inhibitory concentration (IC50) worked out at 430 nM in experiment [1] (setting [8]) and 0.07 nM in experiment [2] (setting [4]).
The corresponding values for `CO[C@]1(c2cnc(Cl)n2C)/C=C/C[C@H](C)[C@@H](C)S(=O)(=O)NC(=O)c2ccc3c(c2)N(C[C@@H]2CC[C@H]21)C[C@@]1(CCCc2cc(Cl)ccc21)CO3` (single isomer, unassigned) [Example 100539] are 727 nM and 0.144 nM.
